# Source: US20100173983A1, “METHOD FOR INDUCING AUTOPHAGY” (priority 2007, published 2010)
# Assays:
# caspase 9 = test: Caspase-Glo 9 assay in R182 cells; type: cell-based, Human; conditions: R182 ovarian cancer explants; dose response and duration of exposure (5 μg/ml, 0-25 hr)
# Description: FIG. 3. Comparative induction of caspase 9 in R182 ovarian cancer explants by Cpd 1 and dehydroequol using either dose response (A) or duration of exposure (B). Caspase 9 activity was assessed using the Caspase-Glo 9 assay.
# (§1) For caspase activity assays, 10 μg of protein in 50 μL total volume was mixed with 50 μL of equilibrated Caspase-Glo 3/7, 8, or 9 reagents (Promega). After incubating at room temperature for 1 hour, luminescence was measured using TD 20/20 Luminometer (Turner Designs, Sunnyvale, Calif.). Blank values were subtracted and fold-increase in activity was calculated based on activity measured from untreated cells. Each sample was measured in triplicate.
# caspase 8 = test: Caspase-Glo 8 assay in R182 cells; type: cell-based, Human; conditions: R182 ovarian cancer explants; dose response and duration of exposure (5 μg/ml, 0-25 hr)
# Description: FIG. 4. Comparative induction of caspase 8 in R182 ovarian cancer explants by Cpd 1 and dehydroequol using either dose response (A) or duration of exposure (B). Caspase 8 activity was assessed using the Caspase-Glo 8 assay.
# as §1
# R182 cells = test: Phase-contrast microscopy, vacuole formation; type: cell-based, Human; conditions: 5 μg/ml over 4 hr and 8 hr
# Description: FIG. 6. Phase-contrast images of R182 cells treated with vehicle (NT) or 5 μg/ml Cpd 1 over 4 hr and 8 hr (A).
# R182 cells treated with Cpd 1 were observed microscopically to determine if morphological and structural alterations to cellular integrity took place. Cells treated with Cpd 1 were hyper-vacuolated (see FIG. 6) and the plasma membrane appeared to bleb or form folds. […] These morphological changes observed in Cpd 1 treated cells are considered the hall mark of autophagy with the increased vacuoles formation thought to result in autophagosomes which eventually fuse with lysosomes to form autolysosomes. These structures contain catabolic hydrolases which are released into the cytoplasm when the lysosomal membrane becomes compromised.
# LC3-II = test: Western blot of R-182 cytoplasmic preparations, LC3-II; type: cell-based, Human; conditions: R-182 cells, 5 μg/ml over 24 hr
# Text: (§2) FIG. 8. Molecular evidence of autophagic cell death in R-182 ovarian cancer cells induced by Cpd 1. […] B, Beclin 1 binds to Bcl-2. Immunoprecipitation study using mitochondrial preparations of cells pre-treated with Cpd 1 as stated in A, and subjected to beclin 1 immunoprecitation. Immunoprecipitated fractions were washed in PBS, subjected to SDS-PAGE, blotted and then probed with a mouse anti-Bcl-2 antibody. Actin and Topo-1 were used as loading control. C, Depolarized cells resulting from over-expression of Bax and Beclin 1 following administration of Cpd 1. Cells were treated with Cpd 1 as described in A, pelleted and washed in HBSS and the cell pellet resuspended in the reaction buffer for JC-1 (Biovision, Inc. MitoCapture™ K250-100). HBSS-washed cells were analysed by flow cytometry (λexcit=488 nm and (λemit=530 nm for green fluorescence (depolarized) or 590 nm for red fluorescence (polarized). 10,000 gated events were measured with a BD FACScalibur. Results were expressed as mean±standard deviation (n=3).
# (§3) After treatment with Cpd 1, protein was extracted from cells and measured as previously described (Kamsteeg et al., 2003). For separation of the cytoplasmic and mitochondrial fractions, cell pellets were processed using the ApoAlert Cell Fractionation kit (Promega) according to the manufacturer's instructions. […]
# Beclin 1 = test: Western blot of R-182 mitochondrial extracts, Beclin 1; type: cell-based, Human; conditions: R-182 cells, 5 μg/ml over 24 hr
# Text: as §2, §3
# Bax = test: Western blot of R-182 mitochondrial extracts, Bax; type: cell-based, Human; conditions: R-182 cells, 5 μg/ml over 24 hr
# Text: as §2, §3
# XIAP = test: Western blot of R-182 cells, XIAP; type: cell-based, Human; conditions: 5 μg/ml over 24 hr
# Text: as §2, §3
# R-182 cells = test: Mitochondrial membrane depolarization, JC-1 flow cytometry; type: cell-based, Human; conditions: cells treated 5 μg/ml
# Text: as §2
# To measure membrane depolarization cells were treated with Cpd 1 as described above, pelleted and washed in HBSS and the cell pellet resuspended in the reaction buffer for JC-1 (Biovision, Inc. MitoCapture™ K250-100). HBSS-washed cell pellets were resuspended in 1 mL aliquots of the Mitocapture reagent buffer with 1 μL of JC-1 solution in DMSO (Biovision).
# cytochrome c = test: Western blot of R-182 cytoplasmic extracts, cytochrome c; type: cell-based, Human; conditions: R-182 cells, 5 μg/ml over 8 hr
# Description: FIG. 9. Cpd 1-induced cell death involves cytochrome c translocation to the cytoplasm. R-182 cells treated with Cpd 1 (5 μg/ml) over 8 hr and the cytoplasmic and mitochondrial fractions were separated. […] Cox-4 was included to show the integrity of the mitochondrial preparation.
# After treatment with Cpd 1, protein was extracted from cells and measured as previously described (Kamsteeg et al., 2003). For separation of the cytoplasmic and mitochondrial fractions, cell pellets were processed using the ApoAlert Cell Fractionation kit (Promega) according to the manufacturer's instructions. 20 μg protein was denatured in sample buffer (2.5% sodium dodecyl sulfate [SDS], 10% glycerol, 5% β-mercapto-ethanol, 0.15 M Tris, pH 6.8, and 0.01% bromophenol blue) and subjected to 12% SDS polyacrylamide gel electrophoresis (SDS-PAGE) as previously described (Kamsteeg et al., 2003). The following antibodies and concentrations were used: mouse anti-Bax (BD Biosciences, 1:500), rabbit anti-actin (Sigma, 1:10,000), rabbit anti-cytochrome c (BD Biosciences, 1:1,000), mouse anti-Cox-4 (BD Biosciences, 1:500), rabbit anti-beclin 1 (Santa Cruz Biotechnology, 1:600), mouse anti LC3 (Nanotools, 1:500). […] Proteins were observed using enhanced chemiluminescence (Pierce, Rockford, Ill.).
# Cpd 1-induced cell death also involves cytochrome c translocation to the cytoplasm (FIG. 9). […]
# [1] = test system: chemoresistant epithelial ovarian cancer (EOC) xenografts; test: EOC xenograft in SCID mice, tumour growth; type: in vivo; conditions: increasing doses, intraperitoneal injection; data not shown
# Description: In vivo studies using tumour-bearing mice were conducted to further confirm that Cpd 1 induces programmed cell death via an autophagic process. SCID mice bearing chemoresistant epithelial ovarian cancer (EOC) xenografts derived from a primary cell culture of a patient's ascites were administered with increasing doses of Cpd 1 by intraperotineal injection resulting in reductions in both tumor volume and tumor weight (data not shown). Representative tumours excised from these mice and tumour-bearing mice administered vehicle control were then fixed, sectioned and subjected to immunohistopathology analysis using an α-enodonuclease G directed monoclonal antibody. Tumor samples were blocked with either 10% horse or goat serum in PBS for 1 hour at room temperature. Following three washes with PBS, samples were incubated overnight at 4° C. with either the anti-EndoG (LifeSpan Bioscience) antibody or mouse IgG1 isotype as negative controls. After three washes with PBS, specific staining was detected by incubating with a peroxidase-conjugated horse anti-mouse antibody (1:1000 dilution) for 1 hour followed by a five-minute incubation with DAB substrate (Vector Laboratories). Tissue sections were then counterstained with haematoxylin (Sigma Chemical Co.) before dehydration with ethanol and Histosolve (Shandon Inc., Pittsburgh, Pa.). […]
smiles,measurement,setting,value
"COc1ccc([C@H]2c3ccc(O)c(C)c3OC[C@H]2c2ccc(O)cc2)cc1 (stereo in doubt) [Cpd 1, 3-(4-hydroxyphenyl)-4-(4-methoxyphenyl)-8-methylchroman-7-ol]",caspase 9 activity,caspase 9,did not induce caspase 9 activity
same,caspase 8 activity,caspase 8,did not induce caspase 8 activity
same,vacuole formation,R182 cells,vacuole formation is clearly evident
same,LC3-II expression,LC3-II,increased over time
same,mitochondrial content of beclin-1,Beclin 1,transiently increased
same,expression of Bax in mitochondrial extracts,Bax,markedly upregulated over time
same,XIAP expression,XIAP,remains unchanged
same,mitochondrial membrane depolarization,R-182 cells,results in mitochondrial membrane depolarization
same,occurrence of cytochrome c in the cytoplasm,cytochrome c,increased over time
same,tumor volume,[1],reductions
same,tumor weight,[1],reductions
